{"source": "patent US12053465B2", "about": "“KCC2 expression enhancing compounds and uses thereof” (Whitehead Institute for Biomedical Research, priority 2017, dated 2024)", "key": {"Mecp2 mutant mice [1]": {"system": "Mecp2 mutant mice", "assay": "Locomotion (infrared beam break) in Mecp2 mutant mouse model of RTT", "assay_type": "in vivo", "procedure": "(§1) We assessed the in vivo efficacy of KEECs by treating RTT disease-related symptoms such as breathing pauses and reduced locomotion (58) in a Mecp2 mutant mouse model of RTT. […] Plethysmograph and locomotion measurements were made in 4-6 week-old male Mecp2 mutant animals as a pre-treatment control time point and were then injected daily with KEECs KW-2449 or Piperine. Injection of the solvent DMSO or ethanol (EtOH) served as vehicle controls (FIG. 15A). The same two behavioral measurements in vehicle or KEEC-injected Mecp2 mutant animals were performed again two weeks after the start of daily injections. Each animal's ‘after injection’ data were compared to the ‘before injection’ level to assess behavioral changes.\n(§2) Male Mecp2 mutant mice (Mecp2^−/y, e.g. the Bird model) between 4-12 weeks of age were used for the in vivo experiments. Subjects were divided into drug treated KO (Piperine/KW-2449), and vehicle treated KO (EtOH/DMSO) groups. Animals were randomly assigned to treatment arms with approximately equivalent numbers in each group.\nKW-2449 stock solution was prepared at 10 mg/ml with DMSO, and Piperine stock solution at 30 mg/ml with EtOH. 20 μl of stock solution were diluted with 1 ml saline for injection. Daily drug treatments or sham injections were performed on both groups between P28 and P56, for at least two weeks, as Mecp2 mutant mice start to show symptoms around P28 and die around P60. Both following tests were performed on both groups of mice before the injections start, and repeated at the end of the injection period. The animals' performance was then compared before and after drug/vehicle injections.\nTo measure the subjects' nighttime locomotion, a 1-D infrared light-beam frame (ActiMot, TSE-systems, MO) was used. Animals were single-housed in new cages with the same setup as their home cages. The infrared monitor was set up for each cage and the beam crossings was recorded between 17:00 and 9:00 the next morning, where the lights were turned off between 19:00 and 7:00. The average beam crossing frequency during the night (21:00-5:00) was used as the subject's activity score, and the average beam crossing frequency after lights on (7:00-9:00) was used as the subject's day time activity score. The time periods where the mouse is stationary for >5 minutes are discarded to reduce artifact caused by the mouse sleeping. As we look at both day-time and night-time locomotion, a bonferroni correction with repeated comparison number of 2 was applied. All behavioral analyses were performed by experimenters who were blind to the treatment condition."}, "Mecp2 mutant mice [2]": {"system": "Mecp2 mutant mice", "assay": "Plethysmograph breathing measurement in Mecp2 mutant mouse model of RTT", "assay_type": "in vivo", "conditions": "male Mecp2 mutant mice; daily injection, two weeks; vs DMSO- or EtOH-injected control", "procedure": "as §1\nas §2, with “group. […]” for “group.”\nA full body plethysmograph chamber (EMKA Inc, PA) was used to measure breathing patterns. […] For each test, the subject was left in the chamber for 20 minutes, afterwards its breath pattern was recorded for the next 20 minutes, and the estimated amplitude modulation index (eAMI) was calculated from the breath trace to label breath pauses automatically. […]"}, "human RTT neurons": {"system": "human RTT neurons", "assay": "Gramicidin-perforated patch recording of EGABA in cultured human RTT neurons", "assay_type": "cell-based"}}}
{"smiles": "O=C(c1ccc(/C=C/c2n[nH]c3ccccc23)cc1)N1CCNCC1", "note": "[KW-2449, (E)-(4-(2-(1H-indazol-3-yl)vinyl)phenyl)(piperazin-1-yl)methanone]", "values": [{"measurement": "night-time locomotion (infrared beam break frequency in home cage)", "setting": "Mecp2 mutant mice [1]; Mecp2 mutant animals, vs DMSO control", "value": "significantly increased night-time locomotion"}, {"measurement": "locomotive activities", "setting": "Mecp2 mutant mice [1]; male Mecp2 mutant mice, daily injection, two weeks, vs DMSO- or EtOH-injected control", "value": "remarkable increase in locomotive activities"}, {"measurement": "frequency of breathing pauses", "setting": "Mecp2 mutant mice [2]", "value": "significantly reduced the frequency of breathing pauses"}, {"measurement": "shift in EGABA", "setting": "human RTT neurons; RTT neurons transfected with KCC2 shRNA", "value": "failed to hyperpolarize the EGABA"}, {"measurement": "shift in EGABA", "setting": "human RTT neurons; cultured human RTT neurons, DMSO about −50 mV, WT −70 mV", "value": "significant hyperpolarizing shift in EGABA to levels comparable to WT neurons"}]}
